# Patent publication US5001129A, “Oxazoloquinoline compounds and therapeutic application thereof” (Delalande S.A., priority 1987, dated 1991)
# Legend:
# monoamine oxydase = biological target: T1, monoamine oxydase (Rattus norvegicus, UniProt P21396); experiment: inhibition of the activity of the monoamine oxydase in vitro on homogenates of rat brain (serotonin as substrate); assay type: biochemical; settings: serotonin as substrate at 480 μM, read-out: Test in vitro IC50
# T1 construct: in vitro on homogenates of rat brain; from tissue; host or cells: rat brain homogenate
# T1 sequence (P21396 1-526): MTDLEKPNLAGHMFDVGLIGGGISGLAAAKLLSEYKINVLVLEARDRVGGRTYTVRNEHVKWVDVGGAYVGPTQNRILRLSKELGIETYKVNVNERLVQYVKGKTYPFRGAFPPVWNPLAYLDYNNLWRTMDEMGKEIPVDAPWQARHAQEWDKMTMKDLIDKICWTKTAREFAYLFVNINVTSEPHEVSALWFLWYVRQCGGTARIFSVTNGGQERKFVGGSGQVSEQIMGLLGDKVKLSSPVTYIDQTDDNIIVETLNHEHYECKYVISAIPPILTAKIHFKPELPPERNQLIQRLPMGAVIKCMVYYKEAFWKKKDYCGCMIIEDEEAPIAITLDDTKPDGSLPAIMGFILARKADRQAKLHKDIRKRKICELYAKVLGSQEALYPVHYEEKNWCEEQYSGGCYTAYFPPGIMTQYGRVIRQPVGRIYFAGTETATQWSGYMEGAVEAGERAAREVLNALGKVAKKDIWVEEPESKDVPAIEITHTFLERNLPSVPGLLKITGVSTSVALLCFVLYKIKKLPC
# Description: in vitro on homogenates of rat brain, by measuring the concentration of the product inhibiting by 50% (IC50) the activity of the monoamine oxydase utilising serotonin as substrate at 480 μM, according to the method described by M. STROLIN BENEDETTI. T. BOUCHER and C. J. FOWLER in Naunyn--Schmiedebergs Archiv. of Pharm. (1983) 323, 315-320;
# [1] = tested on: effects of serotonin (precursor hydroxy-5 tryptophan, 5-HTP); experiment: potentiation of hydroxy-5 tryptophan (5-HTP): generalised trembling or stereotypies in rats; settings: Rattus norvegicus, oral, 1 h before 120 mg/kg i.p. 5-HTP, generalised trembling or stereotypies in 50% of the animals, read-out: Test in vivo ED50
# Description: in vivo by determining in rats the dose of the product which, administered orally, causes in 50% of the animals (ED50) the appearance of generalised trembling or stereotypies (finger-tapping as on a piano, movements of the head) following the intraperitoneal administration 1 h after the first treatment of a dose of 120 mg/kg of hydroxy-5 tryptophan (5-HTP) [M. JALFRE, B. BUCHER, A. COSTON, G. MOCQUET, R. D. PORSOLT, Arch. Int. Pharmacodyn., (1982), 259, 194-221].
# LD50 in mice, oral = settings: mouse, in vivo
IC50 (monoamine oxydase),SMILES,ED50 [1],"LD50 (LD50 in mice, oral)"
500 nM,"C=C[C@H]1OC(=O)N2c3ccccc3CC[C@@H]12 (relative stereo) [MD 200502, ethenyl-3 tetrahydro-3,3a,4,5 1H-oxazolo [3,4-a] quinoline-one-1]",–,–
57 nM,"C=C[C@@H]1OC(=O)N2c3ccccc3CC[C@@H]12 (relative stereo) [MD 200503, ethenyl-3 tetrahydro-3,3a,4,5 1H-oxazolo [3,4-a] quinoline-one-1]",20 mg/kg,–
2800 nM,O=C1O[C@H](CO)[C@@H]2Cc3ccccc3N12 (relative stereo) [MD 200602],–,–
90 nM,"COC[C@H]1OC(=O)N2c3ccccc3CC[C@@H]12 (relative stereo) [MD 200682, cis methoxymethyl-3 tetrahydro-3,3a,4,5 1H oxazolo [3,4-a] quinoline-one-1]",2.3 mg/kg,–
8700 nM,O=C1O[C@@H](CO)[C@@H]2Cc3ccccc3N12 (relative stereo) [MD 200718],–,–
1400 nM,"C[C@@H]1OC(=O)N2c3ccccc3CC[C@@H]12 (relative stereo) [MD 280430, trans methyl-3 tetrahydro-3,3a,4,5 1 H-oxazolo [3,4-a] quinoline-one-1]",105 mg/kg,–

# The next lines start with the molecule.
SMILES,IC50 (monoamine oxydase),ED50 [1],"LD50 (LD50 in mice, oral)"
"O=C1O[C@H](CO)[C@@H]2CCc3ccccc3N12 (relative stereo) [MD 200504, cis hydroxymethyl-3 tetrahydro-3,3a,4,5 1H-oxazolo [3,4-a] quinoline-one-1]",–,7.8 mg/kg,–
"COc1ccc2c(c1)CC[C@H]1[C@@H](CO)OC(=O)N21 (relative stereo) [MD 280386, cis hydroxymethyl-3 methoxy-7 tetrahydro-3,3a,4,5 1H-oxazino [3, 4a] quinoline-one-1]",19 nM,–,–
COc1ccc2c(c1)CC[C@H]1[C@H](CO)OC(=O)N21 (relative stereo) [MD 280387],75 nM,–,–
"C=C[C@@H]1OC(=O)N2c3ccc(OC)cc3CC[C@@H]12 (relative stereo) [MD 280404, ethenyl-3 methoxy-7 tetrahydro-3,3a, 4,5 1H-oxazolo [3.4-a] quinoline-one-1]",29 nM,11 mg/kg,–
COC[C@H]1OC(=O)N2c3ccc(OC)cc3CC[C@@H]12 (relative stereo) [MD 280448],9 nM,1.8 mg/kg,–
COC[C@@H]1OC(=O)N2c3ccc(OC)cc3CC[C@@H]12 (relative stereo) [MD 280449],6 nM,–,1120 mg/kg
"COc1ccc2c(c1)CC[C@H]1[C@@H](CN)OC(=O)N21 (relative stereo) [MD 370024, cis aminomethyl-3 methoxy-7 tetrahydro-3,3a,4,5 1H-oxazolo [3,4-a] quinoline-one-2]",1000 nM,–,–
COc1ccc2c(c1)CC[C@H]1[C@H](CN)OC(=O)N21 (relative stereo) [MD 370025],1600 nM,–,–
CNC[C@H]1OC(=O)N2c3ccc(OC)cc3CC[C@@H]12 (relative stereo) [MD 370026],–,–,263 mg/kg
CNC[C@@H]1OC(=O)N2c3ccc(OC)cc3CC[C@@H]12 (relative stereo) [MD 370027],–,5.8 mg/kg,–
O=C1O[C@@H](CO)[C@@H]2CCc3ccc(Cl)cc3N12 (relative stereo) [MD 370335],97 nM,–,–
O=C1O[C@H](CO)[C@@H]2CCc3ccc(Cl)cc3N12 (relative stereo) [MD 370336],80 nM,–,–
